Details: Liquid, Ebulliometric method (Recirculating still)

C [methane]
Details	vapor or sublimation pressure [kPa]
126.01 K	286.85
127.99 K	324.94
130.02 K	367.76
132.01 K	413.65
133.98 K	463.11
135.99 K	517.9
137.97 K	576.38
140.01 K	641.51
